Source: patent publication US5034390A, “Pyridyl-and pyrmidyl-piperazines useful for the treatment of mental disorders” (Pharmacia AB, priority 1988, dated 1991)
Structures can show the parent of a compound that is named as a salt.

What was measured:
5-HT2 receptors = molecular target: T1, 5-HT2 receptors (Rattus norvegicus, UniProt P14842); assay: Affinity to 5-HT2 receptors (3H-ketanserine binding assay, Leysen et al.); conditions: 3H-ketanserine as ligand
T1 construct: from tissue
Method: The binding assay is carried out essentially as described by Leysen et al. (Mol. Pharmacol. 21, 301-14, 1982) using ^3 H-ketanserine as ligand.

[1] = combined 5-HT2/D2 affinity; cited from earlier work

T1 sequence (P14842 whole entry): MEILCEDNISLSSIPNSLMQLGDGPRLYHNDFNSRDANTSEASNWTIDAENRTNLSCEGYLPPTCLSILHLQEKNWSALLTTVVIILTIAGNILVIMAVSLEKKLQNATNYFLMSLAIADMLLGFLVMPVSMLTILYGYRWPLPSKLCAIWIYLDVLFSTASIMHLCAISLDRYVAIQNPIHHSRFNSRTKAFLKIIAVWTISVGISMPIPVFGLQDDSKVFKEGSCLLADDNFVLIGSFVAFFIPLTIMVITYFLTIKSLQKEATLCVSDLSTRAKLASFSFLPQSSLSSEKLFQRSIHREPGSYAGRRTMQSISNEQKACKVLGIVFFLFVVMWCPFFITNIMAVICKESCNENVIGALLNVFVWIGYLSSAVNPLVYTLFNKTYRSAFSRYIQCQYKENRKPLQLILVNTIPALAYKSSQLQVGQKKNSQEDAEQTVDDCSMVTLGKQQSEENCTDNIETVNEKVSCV

| SMILES | Ki (5-HT2 receptors) [nM] | antipsychotic effect / extrapyramidal side-effects [1] |
| --- | --- | --- |
| Fc1ccc(CCCCN2CCN(c3cccc(Cl)n3)CC2)cc1 [2:9, 4-/4-(p-fluorophenyl)butyl/-1-/6-chloro-2-pyridyl/piperazine hydrochloride] | 7 | – |
| COc1cccc(N2CCN(CCCOc3ccc(F)cc3)CC2)n1 [2:10, 4-/3-(p-fluorophenoxy)propyl/-1-/6-methoxy-2-pyridyl/piperazine fumarate] | 11 | – |
| NC(=O)c1cccnc1N1CCN(CCCSc2ccc(F)cc2)CC1 [2:19, 4-/3-(p-fluorothiophenoxy)propyl/-1-/3-carbamyl-2-pyridyl/piperazine dihydrochloride] | 7 | – |
| CN1CCN(C2=Nc3cc(Cl)ccc3Nc3ccccc32)CC1 [clozapine] | – | antipsychotic effect with a low degree of extrapyramidal side-effects |
